Series [1] has as its system Mycobacterium tuberculosis. The experiment in a line: Antitubercular activity against Mycobacterium tuberculosis MDR-FJ05120 assessed as inhibition of bacterial growth by microplate alamar blue assay. Type of series: functional. For orientation: The colour change of resazurin is a common sign of viable cells or microbes.
A further series deals with Staphylococcus aureus. The experiment in a line: Antibacterial activity against methicillin susceptible Staphylococcus aureus ATCC 29213. Type of series: functional.
For series [2], the system named is Staphylococcus epidermidis. The experiment in a line: Antibacterial activity against Staphylococcus epidermidis. The format is functional.
Series [3] relates to Mycobacterium tuberculosis. Nature of the series: Antitubercular activity against Mycobacterium tuberculosis H37Rv ATCC 27294 assessed as inhibition of bacterial growth by microplate alamar blue assay. The format is functional.
Series [4] relates to Mycobacterium tuberculosis. The experiment in a line: Antitubercular activity against Mycobacterium tuberculosis STB-FJ05060 assessed as inhibition of bacterial growth by microplate alamar blue assay. The format is functional.
The test system of the next series is Escherichia coli. The experiment in a line: Antibacterial activity against ESBL negative Escherichia coli ATCC 25922. Type of series: functional.
The subject of series [5] is Mycobacterium tuberculosis. Nature of the series: Antitubercular activity against Mycobacterium tuberculosis MDR-FJ05189 assessed as inhibition of bacterial growth by microplate alamar blue assay. The format is functional.
The test system of series [6] is Mycobacterium tuberculosis. Nature of the series: Antitubercular activity against Mycobacterium tuberculosis XDR-FJ05195 assessed as inhibition of bacterial growth by microplate alamar blue assay. Type of series: functional.
Series [7] has as its system Mycobacterium tuberculosis. Nature of the series: Antitubercular activity against Mycobacterium tuberculosis STB-FJ05349 assessed as inhibition of bacterial growth by microplate alamar blue assay. Type of series: functional.
A short description of series [8]: (§1) Cytotoxicity against African green monkey Vero cells. Type of series: toxicity, cell-based, Chlorocebus sabaeus. As to conditions: African green monkey, Vero cells.
The subject of series [9] is Mycobacterium tuberculosis. Nature of the series: Antimycobacterial activity against Mycobacterium tuberculosis H37Rv. Type of series: functional.
Series [10] can be described thus: Cytotoxicity against African green monkey Vero cells assessed as inhibition of cell growth incubated for 72 hrs by MTT assay. Type of series: toxicity, cell-based, Chlorocebus sabaeus. Background: Formazan colour is commonly taken as a measure of viable cells.
For series [11], the system named is Mycobacterium tuberculosis. The experiment in a line: Antimycobacterial activity against Mycobacterium tuberculosis H37Rv assessed as inhibition of bacterial growth incubated for 5 days by alamar blue assay. The format is functional. As to conditions: 120 h, time 5 day.
Series [12] deals with Mycobacterium tuberculosis. Nature of the series: Antimycobacterial activity against Mycobacterium tuberculosis H37Rv […]. Type of series: functional.
Series [13] is described as follows: Cytotoxicity against HEK293T cells assessed as reduction in cell viability. Type of series: toxicity, cell-based, HEK-293T. As to conditions: human.
Another series deals with Vero. The description is as §1. As to conditions: chlorocebus sabaeus, vero. Type of series: toxicity, cell-based, Chlorocebus sabaeus.
The subject of series [14] is Mycobacterium tuberculosis. The experiment in a line: Antitubercular activity against Mycobacterium tuberculosis H37Rv by resazurin microtitre assay. Type of series: functional.
Series [15] relates to Mycobacterium tuberculosis. Nature of the series: Antimycobacterial activity against Mycobacterium tuberculosis H37Rv incubated for 4 weeks. As to conditions: 672 h. The format is functional.
For series [16], the system named is Mycobacterium tuberculosis. The experiment in a line: Antimycobacterial activity against Mycobacterium tuberculosis H37Rv incubated for 3 weeks. Type of series: functional. As to conditions: 504 h.
The subject of series [17] is Mycobacterium tuberculosis. Nature of the series: Antimycobacterial activity against Mycobacterium tuberculosis H37Rv incubated for 5 weeks. Type of series: functional. The conditions noted are these: 840 h.
For series [18], the system named is Mycobacterium tuberculosis. The experiment in a line: Antimycobacterial activity against Mycobacterium tuberculosis H37Rv incubated for 2 weeks. The format is functional. As to conditions: 336 h.
Series [19] concerns Mycobacterium tuberculosis. Nature of the series: Antitubercular activity against dormant stage of Mycobacterium tuberculosis H37Ra. The format is functional.
Series [20] concerns Mycobacterium tuberculosis. Nature of the series: Antitubercular activity against active stage of Mycobacterium tuberculosis H37Ra. Type of series: functional.
Series [21] has as its system Mycobacterium tuberculosis. The experiment in a line: Antitubercular activity against Mycobacterium tuberculosis H37Rv assessed as inhibition of bacterial growth by alamar blue assay. Type of series: functional.

≈ marks a conversion by molar mass, not a printed value.

In general, MIC refers to the lowest concentration found to suppress growth. A word on the IC50: it is the concentration that inhibits the measured activity by half. For orientation: MIC90 means an inhibitory concentration at the 90% level, which refers to growth in some studies and to a panel of isolates in others. The term MIC99 denotes the lowest concentration that inhibits either 99% of growth or 99% of the strains tested, depending on the study. The CC50 is the concentration that lowers cell viability or growth by half.

On to `O=C(Nc1nc(-c2ccccn2)cs1)c1ccc(Cl)s1`, for which the MIC was 0.25 µg/mL (≈ 0.777 µM) in series [1]; 32 µg/mL (≈ 99.4 µM) in the series on Staphylococcus aureus; 32 µg/mL (≈ 99.4 µM) in series [2]; 0.08 µg/mL (≈ 0.249 µM) in series [3]; 0.08 µg/mL (≈ 0.249 µM) in series [4]; 256 µg/mL (≈ 795 µM) against Escherichia coli. Besides, the MIC in series [5] is 4 µg/mL (≈ 12.4 µM); in series [6] it was 0.25 µg/mL (≈ 0.777 µM); in series [7], 0.08 µg/mL (≈ 0.249 µM).

In turn, `CC(=O)N1N=C(c2ccc3oc(-c4ccc(O)cc4)nc3c2)CC1c1cccs1` (configuration not stated) returned an IC50 in series [8] of 32.5 µg/mL (≈ 80.6 µM). In [9], the MIC was 0.8 µg/mL (≈ 1.98 µM).

For `Cc1cc(O)n2nc(Nc3ccc(Cl)c(Cl)c3)c(C(N)=O)c2n1`, the concentration for half-maximal inhibition (IC50) at 72 h in series [10] was found to be 29 µg/mL (≈ 82.4 µM). Also, the MIC in series [11] is 6.25 µg/mL (≈ 17.7 µM).

In turn, `CC(=O)N1N=C(c2ccc3oc(NC(=O)CCl)nc3c2)CC1c1cccs1` (configuration not stated) yielded an IC50 in series [8] of over 62.5 µg/mL. The compound further gave an MIC in [9] of 6.25 µg/mL (≈ 15.5 µM).

With `Cc1ccc(NC(=O)c2c(Nc3ccc(Cl)cc3)nn3c(O)cc(C)nc23)cc1`, in series [10], the IC50 at 72 h was 21 µg/mL (≈ 51.5 µM). Further, in [11], the MIC was 3.12 µg/mL (≈ 7.65 µM).

In series [9], `CC(=O)N1/C(=C/c2ccc(-c3ccc(C)cc3)cc2)C(=O)c2ccccc21` showed an MIC90 of 2.71 µM (≈ 0.958 µg/mL) and an MIC99 of 4.37 µM (≈ 1.54 µg/mL). This compound also registered an MIC in series [12] of 14.8 µM (≈ 5.23 µg/mL).

In series [9], `CC(=O)N1/C(=C/c2ccc(-c3ccccc3)cc2)C(=O)c2ccccc21` registered an MIC90 of 1.32 µM (≈ 0.448 µg/mL) and an MIC99 of 2.29 µM (≈ 0.777 µg/mL). Moreover, 12.3 µM (≈ 4.17 µg/mL) was the least that counted as inhibitory in series [12] (MIC).

As for `COc1ccccc1NC(=O)c1c(Nc2cccc(C)c2)nn2c(O)cc(C)nc12`, in series [10], the IC50 at 72 h worked out at 21.3 µg/mL (≈ 52.7 µM). In [11], the MIC amounted to 3.12 µg/mL (≈ 7.73 µM).

In series [9], `CC(=O)N1/C(=C/c2ccc(Br)cc2)C(=O)c2ccccc21` came in with an MIC90 of 0.31 µM (≈ 0.106 µg/mL) and an MIC99 of 0.37 µM (≈ 0.127 µg/mL). This compound displayed an MIC in series [12] of 15.2 µM (≈ 5.2 µg/mL).

On to `CC(=O)N1/C(=C/c2ccc(-c3ccc(Cl)cc3)cc2)C(=O)c2ccccc21`, for which, in series [9], the MIC90 was 2.32 µM (≈ 0.867 µg/mL) and the MIC99 stood at 4.05 µM (≈ 1.51 µg/mL). The compound further displayed an MIC in series [12] of 8.37 µM (≈ 3.13 µg/mL). For the same compound, the CC50 in series [13] was 7 µM.

Consider `Cc1cc(O)n2nc(Nc3ccc(F)c(F)c3)c(C(=O)Nc3ccc(F)cc3)c2n1`, for which the IC50 at 72 h in [10] is 13.6 µg/mL (≈ 32.8 µM). For the same compound, the MIC in series [11] was found to be 0.8 µg/mL (≈ 1.94 µM).

Take `COc1cccc(C(=O)Nc2nc3cc(C4=NN(C(C)=O)C(c5cccs5)C4)ccc3o2)c1` (configuration not stated): the IC5 with Vero was over 62.5 µg/mL. Also, the MIC in series [9] amounted to 1.6 µg/mL (≈ 3.47 µM).

As for `NNC(=O)c1ccncc1` [ISONIAZID], the MIC in series [1] was 4 µg/mL (≈ 29.2 µM); in [3], 0.125 µg/mL (≈ 0.911 µM); in [4], under 0.5 µg/mL; in [14] it was 0.19 µg/mL (≈ 1.39 µM); in series [11], 0.5 µg/mL (≈ 3.65 µM); in [9], 0.5 µg/mL (≈ 3.65 µM). Also, the MIC was under 0.5 µg/mL in [5], over 256 µg/mL in series [6] and under 0.5 µg/mL in [7].

As for `C[C@H]1COc2c(N3CCN(C)CC3)c(F)cc3c(=O)c(C(=O)O)cn1c23.C[C@H]1COc2c(N3CCN(C)CC3)c(F)cc3c(=O)c(C(=O)O)cn1c23.O` [LEVOFLOXACIN], the MIC (in series [15]; against Staphylococcus aureus; in series [2]; in [16]; in series [17]; in [18]) was 0.25 µg/mL in each case.

With `CO[C@H]1/C=C/O[C@@]2(C)Oc3c(C)c(O)c4c(O)c(c(/C=N/N5CCN(C)CC5)c(O)c4c3C2=O)NC(=O)/C(C)=C\C=C\[C@H](C)[C@H](O)[C@@H](C)[C@@H](O)[C@@H](C)[C@H](OC(C)=O)[C@@H]1C` [RIFAMPIN], the MIC was over 256 µg/mL in [1]; 0.91 µg/mL (≈ 1.11 µM) in series [19]; 0.125 µg/mL (≈ 0.152 µM) in series [3]; under 0.5 µg/mL in [4]; 0.75 µg/mL (≈ 0.911 µM) in series [20]; 0.049 µg/mL (≈ 0.0595 µM) in series [14]. The MIC in series [12] is 0.377 µM (≈ 0.31 µg/mL); in series [5] it was over 256 µg/mL; in series [6], 4 µg/mL (≈ 4.86 µM); in series [7] it was under 0.5 µg/mL. The compound also had an MIC90 in [9] of 0.00291 µM (≈ 0.00239 µg/mL). The same compound registered an MIC99 in series [9] of 0.00482 µM (≈ 0.00397 µg/mL).

On to `CN[C@@H]1[C@H](O[C@H]2[C@H](O[C@H]3[C@H](O)[C@@H](O)[C@H](N=C(N)N)[C@@H](O)[C@@H]3N=C(N)N)O[C@@H](C)[C@]2(O)C=O)O[C@@H](CO)[C@H](O)[C@H]1O` [STREPTOMYCIN], for which the minimal inhibitory concentration (MIC) in series [21] came out at 6.25 µg/mL (≈ 10.7 µM); in [14] it was 0.19 µg/mL (≈ 0.327 µM); in [11] it was 6.25 µg/mL (≈ 10.7 µM); in [9], 6.25 µg/mL (≈ 10.7 µM).

The values above are taken from ChEMBL document CHEMBL5244273, “Tuberculosis: An Overview of the Immunogenic Response, Disease Progression, and Medicinal Chemistry Efforts in the Last Decade toward the Development of Potential Drugs for Extensively Drug-Resistant Tuberculosis Strains” (J Med Chem, 2021).
